Source: article PMC6936879, “Inhibiting the copper efflux system in microbes as a novel approach for developing antibiotics” (PLoS ONE, 2019)

How the values were obtained:
E. coli (BL21;DE3) = assay: E. coli viability assay (LIVE/DEAD fluorescence imaging); format: cell-based; conditions: peptide 125 μM; LIVE/DEAD staining, M9 medium, confocal imaging, cell counts with ImageJ; mean ± SE, n = 3
Experimental: E. coli (BL21;DE3) were dyed using the L7007 LIVE/DEAD Bacterial Viability kit (Molecular Probes, Eugene OR, USA); microbes were grown in M9 medium. Images were acquired on a Leica SP8 confocal microscope, running LASX acquisition software. The magnification consisted of a 63 X 1.4 NA objective. Microbes were counted using ImageJ software. Error calculations were based on three repetitions, with each experiment scanned at nine different tiles—all together, 27 repetitions.
Live/dead fluorescence cell imaging experiments were used to indicate bacterial viability when incubated with the peptides. This method also helped to determine whether the decrease in the growth rate described above resulted from deceleration in E. coli growth or its substantial death. E coli were grown to the late […] phase (according to the growth rate lines; Figs B to D in S1 File) in the presence of the peptides in poor medium (M9), which mostly resembles physiological conditions.[52–54] Glucose levels in the growth media were sufficient to prevent bacterial viability loss due to lack of nutrition, yet not too high to positively affect its viability. […] However, the effect of the peptides was not as substantial as the commercially available antibiotic kanamycin. […] 5 ± 4.3% and up to 45.3 ± 4.3% reduction at a concentration of 125 μM.
Fig 4 Effect of the test peptides on E. coli viability. […]

E. coli (BL21) = assay: Kirby-Bauer test (disc diffusion); format: cell-based; conditions: 2 mm radius discs, LB petri dishes, 37 °C overnight
CusB = target: T1, CusB (Escherichia coli, UniProt P77239, A236C/A248C); assay: DEER distance distribution measurements on spin-labeled CusB; design: species or system E. coli; conditions: CusB spin labeled (MTSSL) at A236C and A248C; Cu(I):CusB 3:1; Q-band DEER at 50 K; apo-CusB 2.5 ± 0.5 nm, holo-CusB 2.8 ± 0.3 nm
T1 construct: intein (cleaved yes); made in house; host or cells: E. coli BL21 (DE3)
Experimental: Before labeling, 10 mM DTT was added to the protein solution and mixed overnight at 4°C. DTT was dialyzed out using a Microsep Advanced Centrifugal Device (Pall, Port Washington, NY, USA) applied to samples of up to 5 mL in lysis buffer, with a 3-kDa molecular weight cutoff. Next, 0.25 mg of S-(2,2,5,5-tetramethyl-2,5-dihydro-1H-pyrrol-3-yl)methyl methanesulfonothioate (MTSSL, TRC) was dissolved in 15 μL Dimethyl sulfoxide (DMSO) and added to 0.75 ml of 0.01 mM protein solution (20-fold molar excess of MTSSL). The protein solution was then vortexed overnight at 4°C. The free spin label and Cu(I) ions were removed by several dialysis cycles over 4 days. […] The concentration was determined with a Lowry assay. […]
A constant-time four-pulse double electron-electron resonance (DEER) experiment with pulse sequence π/2(νobs)-τ1-π(νobs)-t′−π(νpump)-(τ1 + τ2 − t′)-π(νobs)-τ2(νobs)-τ2-echo was performed at (50 ± 0.5 K) on a Q-band Elexsys E580 equipped with a 2-mm probe head; bandwidth, 220 MHz. […] The echo was measured as a function of t′, and τ2 was kept constant to eliminate relaxation effects. […] The samples were measured in 1.6-mm quartz capillary tubes (Wilmad-Labglass, Vineland, NJ, USA). The data were analyzed with the DeerAnalysis 2016 program and with Tikhonov regularization. […]

Substance: AKIQG [pep8]
- reduction of bacterial viability (E. coli (BL21;DE3)): 41 ±5.15%
- r, radius of bacteria killing formed over petri dishes by peptide-solution discs (E. coli (BL21); disc solution 50 µM in 0.85% NaCl): 0 mm
- r, radius of bacteria killing formed over petri dishes by peptide-solution discs (E. coli (BL21); disc solution 75 µM in 0.85% NaCl): 0.5 mm
- r, radius of bacteria killing formed over petri dishes by peptide-solution discs (E. coli (BL21); disc solution 100 µM in 0.85% NaCl): 0.5 mm
- r, radius of bacteria killing formed over petri dishes by peptide-solution discs (E. coli (BL21); disc solution 125 µM in 0.85% NaCl): 1 mm
- DEER distance distribution of CusB bound to peptide and incubated with Cu(I) (CusB): around 3.2 nm
